Assay results reported in ChEMBL document CHEMBL4392848, “Proline-based hydroxamates targeting the zinc-dependent deacetylase LpxC: Synthesis, antibacterial properties, and docking studies” (Bioorg Med Chem, 2019).
In brackets after ≈: the same amount, converted by molar mass.

Tests used:
[1] = tested on: Escherichia coli; test: Antibacterial activity against Escherichia coli BL21(DE3) assessed as diameter of inhibition zone measured after overnight incubation by agar disc diffusion method; type: functional; note: test concentration or dose not given here
[2] = tested on: Escherichia coli; test: Antibacterial activity against Escherichia coli D22 assessed as diameter of inhibition zone measured after overnight incubation by agar disc diffusion method; type: functional; note: test concentration or dose not given here
[3] = tested on: Escherichia coli; test: Antibacterial activity against Escherichia coli BL21(DE3) measured after 20 hrs by microdilution method; type: functional
[4] = tested on: Escherichia coli; test: Antibacterial activity against Escherichia coli D22 measured after 20 hrs by microdilution method; type: functional; settings: D22, 20 h
[5] = Inhibition of Escherichia coli LpxC C63A mutant using UDP-3-O-[(R)-3-hydroxymyristoyl]-N-acetylglucosamine as substrate measured after 30 mins by fluorescence based microplate assay
[6] = tested on: Klebsiella pneumoniae; test: Antibacterial activity against Klebsiella pneumoniae assessed as diameter of inhibition zone measured after 24 hrs by agar disc diffusion method; type: functional; note: test concentration or dose not given here
[7] = tested on: Klebsiella oxytoca; test: Antibacterial activity against Klebsiella oxytoca assessed as diameter of inhibition zone measured after 24 hrs by agar disc diffusion method; type: functional; note: test concentration or dose not given here
[8] = tested on: Enterobacter cloacae; test: Antibacterial activity against Enterobacter cloacae assessed as diameter of inhibition zone measured after 24 hrs by agar disc diffusion method; type: functional; note: test concentration or dose not given here
[9] = tested on: Klebsiella aerogenes; test: Antibacterial activity against Enterobacter aerogenes assessed as diameter of inhibition zone measured after 24 hrs by agar disc diffusion method; type: functional; note: test concentration or dose not given here
[10] = tested on: Proteus mirabilis; test: Antibacterial activity against Proteus mirabilis assessed as diameter of inhibition zone measured after 24 hrs by agar disc diffusion method; type: functional; note: test concentration or dose not given here
[11] = tested on: Proteus vulgaris; test: Antibacterial activity against Proteus vulgaris assessed as diameter of inhibition zone measured after 24 hrs by agar disc diffusion method; type: functional; note: test concentration or dose not given here
[12] = tested on: Citrobacter freundii; test: Antibacterial activity against Citrobacter freundii assessed as diameter of inhibition zone measured after 24 hrs by agar disc diffusion method; type: functional; note: test concentration or dose not given here
[13] = tested on: Pseudomonas aeruginosa; test: Antibacterial activity against Pseudomonas aeruginosa assessed as diameter of inhibition zone measured after 24 hrs by agar disc diffusion method; type: functional; note: test concentration or dose not given here
[14] = target: 72 kDa type IV collagenase (Homo sapiens, UniProt P08253); test: Inhibition of human MMP2 using (7-methoxycoumarin-4-yl)acetyl-Pro-Leu-Gly-Leu-(3-(2,4-dinitrophenyl)-L-2,3-diamino-propionyl)Ala-Arg-NH2 as substrate preincubated for 30 mins followed by substrate addition and measured by fluorescence assay
Chain of 72 kDa type IV collagenase (P08253 whole entry): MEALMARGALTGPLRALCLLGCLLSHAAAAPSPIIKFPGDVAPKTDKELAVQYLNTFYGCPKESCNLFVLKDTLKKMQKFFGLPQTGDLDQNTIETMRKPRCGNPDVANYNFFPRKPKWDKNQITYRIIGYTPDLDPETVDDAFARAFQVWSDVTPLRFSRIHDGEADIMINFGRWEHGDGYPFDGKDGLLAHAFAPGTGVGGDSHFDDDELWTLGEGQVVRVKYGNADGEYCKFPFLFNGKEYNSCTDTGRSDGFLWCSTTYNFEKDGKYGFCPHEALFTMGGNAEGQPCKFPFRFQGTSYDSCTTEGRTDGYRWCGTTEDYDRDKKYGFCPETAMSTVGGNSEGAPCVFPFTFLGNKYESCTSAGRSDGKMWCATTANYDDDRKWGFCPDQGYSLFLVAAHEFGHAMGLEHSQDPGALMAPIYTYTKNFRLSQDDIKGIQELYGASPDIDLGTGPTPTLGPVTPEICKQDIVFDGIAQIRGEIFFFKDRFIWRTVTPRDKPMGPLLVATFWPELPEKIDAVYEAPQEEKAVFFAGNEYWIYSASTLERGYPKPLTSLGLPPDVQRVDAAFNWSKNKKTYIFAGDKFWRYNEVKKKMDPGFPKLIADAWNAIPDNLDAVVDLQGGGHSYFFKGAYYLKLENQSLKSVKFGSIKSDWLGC

[15] = target: Matrix metalloproteinase-9 (Homo sapiens, UniProt P14780); test: Inhibition of human MMP9 using (7-methoxycoumarin-4-yl)acetyl-Pro-Leu-Gly-Leu-(3-(2,4-dinitrophenyl)-L-2,3-diamino-propionyl)Ala-Arg-NH2 as substrate preincubated for 30 mins followed by substrate addition and measured by fluorescence assay
Chain of Matrix metalloproteinase-9 (P14780 whole entry): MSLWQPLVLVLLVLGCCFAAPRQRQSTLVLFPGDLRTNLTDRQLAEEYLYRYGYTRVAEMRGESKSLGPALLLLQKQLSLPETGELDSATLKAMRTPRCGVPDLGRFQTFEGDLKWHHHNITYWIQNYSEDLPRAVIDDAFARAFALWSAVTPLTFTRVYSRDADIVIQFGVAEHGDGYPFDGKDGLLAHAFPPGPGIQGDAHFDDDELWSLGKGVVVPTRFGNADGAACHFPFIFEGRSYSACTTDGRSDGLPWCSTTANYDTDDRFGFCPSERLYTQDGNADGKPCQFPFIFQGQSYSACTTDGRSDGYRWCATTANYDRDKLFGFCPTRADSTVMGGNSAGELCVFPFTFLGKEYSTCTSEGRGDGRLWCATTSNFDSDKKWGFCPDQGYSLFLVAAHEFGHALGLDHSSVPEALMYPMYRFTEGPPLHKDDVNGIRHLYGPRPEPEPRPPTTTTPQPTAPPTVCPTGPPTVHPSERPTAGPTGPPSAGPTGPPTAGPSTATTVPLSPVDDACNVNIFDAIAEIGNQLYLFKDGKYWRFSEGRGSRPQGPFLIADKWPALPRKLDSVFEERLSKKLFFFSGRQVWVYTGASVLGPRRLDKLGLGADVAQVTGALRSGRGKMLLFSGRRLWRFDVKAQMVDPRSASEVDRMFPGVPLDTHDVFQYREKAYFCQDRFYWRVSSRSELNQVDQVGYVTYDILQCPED

[16] = target: Collagenase 3 (Homo sapiens, UniProt P45452); test: Inhibition of human MMP13 using (7-methoxycoumarin-4-yl)acetyl-Pro-Leu-Gly-Leu-(3-(2,4-dinitrophenyl)-L-2,3-diamino-propionyl)Ala-Arg-NH2 as substrate preincubated for 30 mins followed by substrate addition and measured by fluorescence assay
[17] = target: Neutrophil collagenase (Homo sapiens, UniProt P22894); test: Inhibition of human MMP8 using (7-methoxycoumarin-4-yl)acetyl-Pro-Leu-Gly-Leu-(3-(2,4-dinitrophenyl)-L-2,3-diamino-propionyl)Ala-Arg-NH2 as substrate preincubated for 30 mins followed by substrate addition and measured by fluorescence assay
Chain of Neutrophil collagenase (P22894 whole entry): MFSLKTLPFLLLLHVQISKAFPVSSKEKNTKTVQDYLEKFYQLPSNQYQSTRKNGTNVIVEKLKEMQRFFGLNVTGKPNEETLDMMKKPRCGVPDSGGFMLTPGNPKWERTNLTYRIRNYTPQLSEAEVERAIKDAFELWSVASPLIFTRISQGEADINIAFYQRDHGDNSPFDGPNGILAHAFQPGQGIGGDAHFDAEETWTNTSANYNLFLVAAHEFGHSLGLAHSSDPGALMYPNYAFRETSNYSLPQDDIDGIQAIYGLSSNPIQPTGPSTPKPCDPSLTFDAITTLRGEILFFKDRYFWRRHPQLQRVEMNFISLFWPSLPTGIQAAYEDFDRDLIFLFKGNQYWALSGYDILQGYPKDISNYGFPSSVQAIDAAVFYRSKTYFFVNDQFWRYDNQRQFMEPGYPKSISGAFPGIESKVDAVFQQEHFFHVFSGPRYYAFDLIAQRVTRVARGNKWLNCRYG

| Compound | diameter of the inhibition zone (DIZ) [1] | diameter of the inhibition zone (DIZ) [2] | MIC [3] | MIC [4] | IC50 [5] | Ki [5] | diameter of the inhibition zone (DIZ) [6] | diameter of the inhibition zone (DIZ) [7] | diameter of the inhibition zone (DIZ) [8] | diameter of the inhibition zone (DIZ) [9] | diameter of the inhibition zone (DIZ) [10] | diameter of the inhibition zone (DIZ) [11] | diameter of the inhibition zone (DIZ) [12] | diameter of the inhibition zone (DIZ) [13] | IC50 [14] | IC50 [15] | IC50 [16] | IC50 [17] |
| --- | --- | --- | --- | --- | --- | --- | --- | --- | --- | --- | --- | --- | --- | --- | --- | --- | --- | --- |
| CC1(C)O[C@@H]2[C@@H](CN(C(=O)c3ccc(C#Cc4ccc(CN5CCOCC5)cc4)cc3)[C@H]2C(=O)NO)O1 | 9 mm | 10 mm | > 256 µM | 256 µM (≈ 129 µg/mL) | > 200000 nM | > 27600 nM | 8 mm | 8 mm | <6 mm | 8 mm | 8 mm | <6 mm | 11 mm | <6 mm | 3000 nM | > 10000 nM | > 10000 nM | – |
| O=C(NO)[C@@H]1CCCN1Cc1ccc(C#Cc2ccc(CN3CCOCC3)cc2)cc1 | 15 mm | 25 mm | 128 µM (≈ 53.7 µg/mL) | 4 µM (≈ 1.68 µg/mL) | 10500 nM | 1400 nM | 20 mm | 13 mm | 20 mm | 18 mm | 18 mm | 12 mm | 16 mm | <6 mm | 3000 nM | > 10000 nM | 939 nM | 5000 nM |
| CCCCCc1ccc(C#Cc2ccc(C(=O)N3C[C@@H](O)C[C@H]3C(=O)NO)cc2)cc1 | <6 mm | 8 mm | > 256 µM | > 128 µM | > 200000 nM | > 27600 nM | <6 mm | 7 mm | <6 mm | <6 mm | 7 mm | 8 mm | 7 mm | <6 mm | 3 nM | 120 nM | 0.7 nM | 15 nM |
| CCCCCc1ccc(C#Cc2ccc(C(=O)N3C[C@H](O)C[C@H]3C(=O)NO)cc2)cc1 | <6 mm | 8 mm | > 256 µM | 16 µM (≈ 6.73 µg/mL) | 5900 nM | 810 nM | <6 mm | 7 mm | 8 mm | <6 mm | <6 mm | 9 mm | 9 mm | <6 mm | 151 nM | 845 nM | 11 nM | 282 nM |
| O=C(NO)[C@@H]1CCCN1C(=O)c1ccc(C#Cc2ccc(CN3CCOCC3)cc2)cc1 | 13.2 mm | 20 mm | 64 µM (≈ 27.7 µg/mL) | 16 µM (≈ 6.94 µg/mL) | 45600 nM | 6300 nM | 15 mm | 9 mm | 13 mm | 15 mm | 12 mm | 9 mm | 12 mm | <6 mm | 570 nM | 4000 nM | 280 nM | 2000 nM |
| O=C(NO)[C@@H]1C[C@@H](O)CN1C(=O)c1ccc(C#Cc2ccc(CN3CCOCC3)cc2)cc1 | 7.5 mm | 20.7 mm | > 256 µM | 16 µM (≈ 7.19 µg/mL) | 47900 nM | 6600 nM | 9 mm | <6 mm | <6 mm | 16 mm | 9 mm | <6 mm | 10 mm | <6 mm | 1000 nM | 9000 nM | 1000 nM | 2000 nM |
| O=C(NO)[C@H]1CCCN1C(=O)c1ccc(C#Cc2ccc(CN3CCOCC3)cc2)cc1 | 11.3 mm | 24.7 mm | > 256 µM | 8 µM (≈ 3.47 µg/mL) | 63400 nM | 8700 nM | 11 mm | 8 mm | 9 mm | 9 mm | 9 mm | <6 mm | 12 mm | <6 mm | 503 nM | 731 nM | 636 nM | 50 nM |
| O=C(NO)[C@@H]1C[C@H](O)CN1C(=O)c1ccc(C#Cc2ccc(CN3CCOCC3)cc2)cc1 | 11.3 mm | 19.5 mm | > 256 µM | 16 µM (≈ 7.19 µg/mL) | 29500 nM | 4100 nM | 10 mm | 8 mm | 8 mm | 15 mm | 11 mm | 9 mm | 12 mm | <6 mm | 55 nM | 1000 nM | 57 nM | 198 nM |
| O=C(NO)[C@@H]1C[C@H](O)CN1C(=O)c1ccc(C#Cc2ccc(OCCCCCF)cc2)cc1 | <6 mm | <6 mm | > 256 µM | > 256 µM | – | – | – | – | – | – | – | – | – | – | 5 nM | 108 nM | 0.07 nM | 21 nM |
